Where a name gives a salt, the structure may show the parent alone. A value given as a limit tells only on which side of the number the result lay.

These results are taken from patent US12281079B2, “Quinoline derivatives, processes for their preparation and uses thereof for the treatment of cancer” (Lead Discovery Center GmbH, priority 2019, dated 2025).

Assay [1] has as its target mitochondrial RNA polymerase (POLRMT) (Mus musculus, UniProt Q8BKF1). Nature of the assay: Homogeneous TR-FRET assay for mitochondrial transcription activity. The class given is biochemical. Particulars: homogeneous TR-FRET assay according to Example 4. Put shortly:
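Read-out is TR-FRET (ex 340, em 665 nm) from two adjacent labelled DNA probes annealing to the 407 bp transcript after EDTA/700 mM NaCl stop. Reaction: murine POLRMT, TFAM, TFB2M and LSP plasmid template, compound 10 μM or serial dilution, 10 min rt preincubation, 500 μM each nucleotide, 2 h rt.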

Assay [2] relates to mitochondrial transcription (7S RNA) in HeLa cells. Nature of the assay: Quantitative real time-PCR assay of inhibition of mitochondrial transcription (7S RNA) in HeLa cells. The format is cell-based. Particulars: Homo sapiens, 4 h compound incubation, according to Example 5, read-out: cellular qPCR assay. The procedure:
Quantitative real-time PCR (qRT-PCR), based on the TaqMan™ (Thermo Fisher Scientific, Waltham Mass.) technology, was carried out essentially as described in Held et al. (1996). HeLa cells were plated one day before compound treatment in RPMI medium supplemented with 10% Fetal Calf Serum and 2 mM L-glutamine. Cells were incubated with dilution series of compounds or vehicle (DMSO) for 4 h, prior to harvest and extraction of the RNA using the RNeasy Mini Kit (Qiagen, Hilden D), according to the manufacturer's instructions. RNA concentrations were measured spectroscopically, using a NanoDrop-2000 (Thermo Fisher Scientific, Waltham Mass.) and normalized prior to cDNA synthesis, using a ‘High-Capacity cDNA Reverse Transcription Kit’ (Thermo Fisher Scientific, Waltham Mass.). qRT-PCR was carried out using the ‘TaqMan Fast Advance Master Mix’ (Thermo Fisher Scientific, Waltham Mass.) on a 7500 Fast Real-Time PCR machine (Applied Biosystems, Foster City Calif.)
For these measurements, three genes were used to compare the effect of the scrutinized compounds in relation to their concentration. The POLRMT-gene was used to detect potential influences on nuclear transcription. Mitochondrial transcription in vivo was monitored by measurements 7S RNA. The TBP (TATA-box binding protein) gene was employed as the control (housekeeping gene) during qRT-PCR. The short-lived mitochondrial 7S RNA, which is not post-transcriptionally stabilized, allowed us to monitor rapid changes in mitochondrial transcription activity following compound addition. Biological triplicates were analyzed using the comparative CT Method (ΔΔCt) method (Bubner and Baldwin, 2004) and reported as Rq % values (Rq=Relative quantification=2−ΔΔCt).

mitochondrial RNA polymerase (POLRMT), sequence (Q8BKF1 42-1207): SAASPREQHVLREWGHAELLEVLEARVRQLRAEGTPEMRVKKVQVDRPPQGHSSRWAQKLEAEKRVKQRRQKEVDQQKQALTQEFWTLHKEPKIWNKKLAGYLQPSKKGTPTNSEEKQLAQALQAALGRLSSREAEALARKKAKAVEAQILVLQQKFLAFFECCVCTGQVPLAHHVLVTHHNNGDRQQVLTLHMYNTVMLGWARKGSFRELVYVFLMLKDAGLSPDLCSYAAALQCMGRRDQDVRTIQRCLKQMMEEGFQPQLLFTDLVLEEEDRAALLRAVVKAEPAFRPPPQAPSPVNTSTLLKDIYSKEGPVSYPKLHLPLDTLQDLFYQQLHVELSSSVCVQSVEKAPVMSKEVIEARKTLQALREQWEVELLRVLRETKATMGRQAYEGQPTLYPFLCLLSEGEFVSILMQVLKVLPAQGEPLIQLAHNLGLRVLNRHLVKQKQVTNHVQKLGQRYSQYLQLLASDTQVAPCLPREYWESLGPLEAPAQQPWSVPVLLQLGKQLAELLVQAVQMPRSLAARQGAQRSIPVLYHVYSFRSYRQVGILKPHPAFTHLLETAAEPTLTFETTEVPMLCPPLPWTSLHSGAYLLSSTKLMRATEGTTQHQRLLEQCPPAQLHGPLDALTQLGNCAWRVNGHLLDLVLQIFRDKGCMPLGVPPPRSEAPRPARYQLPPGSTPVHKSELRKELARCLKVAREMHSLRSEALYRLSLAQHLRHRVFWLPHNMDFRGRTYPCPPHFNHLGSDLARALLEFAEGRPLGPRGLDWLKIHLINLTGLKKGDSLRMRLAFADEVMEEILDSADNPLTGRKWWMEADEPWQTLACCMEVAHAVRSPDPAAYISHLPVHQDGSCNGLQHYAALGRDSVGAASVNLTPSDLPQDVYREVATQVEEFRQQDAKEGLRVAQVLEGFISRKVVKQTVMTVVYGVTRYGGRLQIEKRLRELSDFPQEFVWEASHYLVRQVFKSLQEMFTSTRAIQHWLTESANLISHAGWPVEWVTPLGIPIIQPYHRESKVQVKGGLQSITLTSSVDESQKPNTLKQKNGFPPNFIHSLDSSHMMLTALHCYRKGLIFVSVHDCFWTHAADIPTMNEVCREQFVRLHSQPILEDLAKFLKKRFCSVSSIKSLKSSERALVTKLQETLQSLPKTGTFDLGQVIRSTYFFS

As for `C[C@@H](Oc1ccc2c(-c3ccc(F)cc3Cl)ccnc2c1)C(=O)N1CC[C@H](C(=O)O)C1` [Compound 19, (3S)-1-[(2R)-2[[4-(2-chloro-4-fluoro-phenyl)-7-quinolyl]oxy]propanoyl]pyrrolidine-3-carboxylic acid], the values for the IC50 in assay [1] and in assay [2] were 20 to 100 nM and 50 to 500 nM, respectively.
As for `Cc1cccc(C)c1-c1ccnc2cc(O[C@H](C)C(=O)N3CCC[C@@H](CC(=O)O)C3)ccc12` [Compound 5, 2-[(3S)-1-[(2R)-2-[[4-(2,6-dimethylphenyl)-7-quinolyl]oxy]propanoyl]-3-piperidyl]acetic acid], the IC50 in assay [1] was under 20 nM; in assay [2] it was under 10 nM.
Turning to `CC(Oc1ccc2c(-c3ccc(F)cc3Cl)ccnc2n1)C(=O)N1CCC[C@H](CC(=O)O)C1` (mixture of isomers) [Compound 80, 2-[rac-(3R)-1-[2-[[5-(2-chloro-4-fluoro-phenyl)-1,8-naphthyridin-2-yl]oxy]propanoyl]-3-piperidyl]acetic acid], the IC50 lay within 1000 to 10000 nM in assay [1] and 50 to 500 nM in assay [2].
Taken in the same sequence, the figures for `CCOC(=O)C[C@H]1CCCN(C(=O)[C@@H](C)Oc2ccc3c(-c4ccc(F)cc4Cl)ccnc3c2)C1` [Compound 15, ethyl 2-((R)-1-((R)-2-((4-(2-chloro-4-fluorophenyl)quinolin-7-yl)oxy)propanoyl)piperidin-3-yl)acetate] were 20 to 100 nM and 50 to 500 nM.
Taken in the same sequence, the figures for `CCOC(=O)C[C@H]1CCCN(C(=O)[C@@H](C)Oc2ccc3c(-c4ccccc4C)cc(C)nc3c2)C1` [Compound 49, ethyl 2-[(3R)-1-[(2R)-2-[[2-methyl-4-(o-tolyl)-7-quinolyl]oxy]propanoyl]-3-piperidyl]acetate] were 100 to 1000 nM and 10 to 50 nM.
Consider `C[C@@H](Oc1ccc2c(-c3ccc(F)cc3Cl)ccnc2c1)C(=O)N1CCCC(S(N)(=O)=O)C1` (mixture of isomers) [Compound 33, 1-[rac-(2R)-2-[[4-(2-chloro-4-fluoro-phenyl)-7-quinolyl]oxy]propanoyl]piperidine-3-sulfonamide], for which the IC50 is 100 to 1000 nM in assay [1] and under 10 nM in assay [2].
Taken in the same sequence, the figures for `C[C@@H](Oc1ccc2c(-c3ccc(F)cc3Cl)ccnc2c1)C(=O)N1CCCC2(COC2)C1` [Compound 212, (2R)-2-[[4-(2-chloro-4-fluoro-phenyl)-7-quinolyl]oxy]-1-(2-oxa-8-azaspiro[3.5]nonan-8-yl)propan-1-one] were 100 to 1000 nM and under 10 nM.
The matching figures for `C[C@@H](Oc1ccc2c(-c3ccc(F)cc3Cl)ccnc2c1)C(=O)NC(C)(C)C` [Compound 47, (2R)-N-tert-butyl-2-[[4-(2-chloro-4-fluoro-phenyl)-7-quinolyl]oxy]propanamide]: 100 to 1000 nM and 10 to 50 nM.
Taken in the same sequence, the figures for `Cc1cc(-c2ccccc2C)c2ccc(O[C@H](C)C(=O)N3CCC[C@H](CC(=O)O)C3)cc2n1` [Compound 69, 2-[(3R)-1-[(2R)-2-[[2-methyl-4-(o-tolyl)-7-quinolyl]oxy]propanoyl]-3-piperidyl]acetic acid] were 100 to 1000 nM and 10 to 50 nM.
As to `C[C@@H](Oc1ccc2c(-c3c(Cl)cc(F)cc3Cl)ccnc2n1)C(=O)N1CCC[C@H](CC(=O)O)C1` [Compound 220, 2-[(3R)-1-[(2R)-2-[[5-(2,6-dichloro-4-fluoro-phenyl)-1,8-naphthyridin-2-yl]oxy]propanoyl]-3-piperidyl]acetic acid], the IC50 in assay [1] is 20 to 100 nM; in assay [2] it was under 10 nM.
With `CCNC(=O)[C@@H](C)Oc1ccc2c(-c3ccc(F)cc3Cl)ccnc2c1` [Compound 131], the IC50 fell in the range of 1000 to 10000 nM in assay [1] and 50 to 500 nM in assay [2].
Taken in the same sequence, the figures for `C[C@@H](Oc1ccc2c(-c3ccc(F)cc3Cl)ccnc2c1)C(=O)N1CCC[C@@H](S(N)(=O)=O)C1` [Compound 117, (3R)-1-[(2R)-2-[[4-(2-chloro-4-fluoro-phenyl)-7-quinolyl]oxy]propanoyl]piperidine-3-sulfonamide] were 100 to 1000 nM and 10 to 50 nM.
Taken in the same sequence, the figures for `CCOC(=O)C[C@H]1CCCN(C(=O)[C@@H](C)Oc2ccc3c(-c4ccc(F)cc4Cl)cc(C)nc3c2)C1` [Compound 74, ethyl 2-[(3R)-1-[(2R)-2-[[4-(2-chloro-4-fluoro-phenyl)-2-methyl-7-quinolyl]oxy]propanoyl]-3-piperidyl]acetate] were 100 to 1000 nM and 50 to 500 nM.
Taken in the same sequence, the figures for `C[C@@H](Oc1ccc2c(-c3ccc(F)cc3Cl)ccnc2c1)C(=O)Nc1cccc(C(=O)O)c1` [Compound 26, 3-[[(2R)-2-[[4-(2-chloro-4-fluoro-phenyl)-7-quinolyl]oxy]propanoyl]amino]benzoic acid] were 20 to 100 nM and 50 to 500 nM.
With `Cc1cc(F)cc(C)c1-c1ccnc2cc(O[C@H](C)C(=O)N3C(C)CCCC3C)ccc12` (mixture of isomers) [Compound 191, rac-(2R)-1-(2,6-dimethyl-1-piperidyl)-2-[[4-(4-fluoro-2,6-dimethyl-phenyl)-7-quinolyl]oxy]propan-1-one], the results for the IC50 in assay [1] and in assay [2] were under 20 nM and under 10 nM, respectively.
The matching figures for `C[C@@H](Oc1ccc2c(-c3ccc(F)cc3Cl)ccnc2c1)C(=O)N(C)C` [Compound 45, (2R)-2-[[4-(2-chloro-4-fluoro-phenyl)-7-quinolyl]oxy]-N,N-dimethyl-propanamide]: 100 to 1000 nM and 50 to 500 nM.
Turning to `CC(C)OC(=O)[C@@H](C)Oc1ccc2c(-c3ccccc3Cl)ccnc2c1` [Compound 36, (R)-isopropyl 2-((4-(2-chlorophenyl)quinolin-7 yl)oxy)propanoate FA salt], the IC50 in assay [1] lay within 100 to 1000 nM; in assay [2], 50 to 500 nM.
The matching figures for `Cc1cc(-c2c(C)cccc2C)c2ccc(O[C@H](C)C(=O)N3CCC[C@H](CC(=O)O)C3)cc2n1` [Compound 124, 2-[(3R)-1-[(2R)-2-[[4-(2,6-dimethylphenyl)-2-methyl-7-quinolyl]oxy]propanoyl]-3-piperidyl]acetic acid]: 100 to 1000 nM and 50 to 500 nM.
Taken in the same sequence, the figures for `Cc1cc(-c2ccc(F)cc2Cl)c2ccc(O[C@H](C)C(=O)N3CCC[C@H](C(=O)O)C3)cc2n1` [Compound 59, (3S)-1-[(2R)-2-[[4-(2-chloro-4-fluoro-phenyl)-2-methyl-7-quinolyl]oxy]propanoyl]piperidine-3-carboxylic acid] were 100 to 1000 nM and 10 to 50 nM.
The matching figures for `C[C@@H](Oc1ccc2c(-c3ccccc3Cl)ccnc2c1)C(=O)N1CCC(CC(=O)O)CC1` [Compound 112, 2-[1-[(2R)-2-[[4-(2-chlorophenyl)-7-quinolyl]oxy]propanoyl]-4-piperidyl]acetic acid]: 20 to 100 nM and 10 to 50 nM.
Consider `C[C@@H](Oc1ccc2c(-c3c(Cl)cc(F)cc3Cl)ccnc2c1)C(=O)N1CCC2(CC1)COC2` [Compound 208, (2R)-2-[[4-(2,6-dichloro-4-fluoro-phenyl)-7-quinolyl]oxy]-1-(2-oxa-7-azaspiro[3.5]nonan-7-yl)propan-1-one], for which the IC50 in assay [1] was 100 to 1000 nM; in assay [2] it was 10 to 50 nM.
On to `Cc1cc(-c2c(C)cccc2C)c2ccc(O[C@H](C)C(=O)N3CCC[C@H](S(N)(=O)=O)C3)cc2n1` [Compound 113, (3S)-1-[(2R)-2-[[4-(2,6-dimethylphenyl)-2-methyl-7-quinolyl]oxy]propanoyl]piperidine-3-sulfonamide], for which the IC50 in assay [1] fell in the range of 100 to 1000 nM; in assay [2], 50 to 500 nM.
